US6642222B2, “Pyrano, piperidino, and thiopyrano compounds and methods of use” (Abbott Laboratories, priority 1998, dated 2003)

Legend:
[1] = tested on: Landrace Pig Bladder; test: Functional potassium channel opening activity in isolated bladder strips (field-stimulated twitch); conditions: for Index: ED50 for P1075 divided by ED50 for the test agonist, averaged over tissues; for Efficacy (% P1075) / Emax: maximal efficacy relative to P1075, field stimulated bladder strips; for pD2 / EC50: negative logarithm of ED50; for Emax / EC50: Sus scrofa; for EC50: read-out: pD2 (converted)
Procedure: Compounds were evaluated for functional potassium channel opening activity using tissue strips obtained from Landrace pig bladders. Landrace pig bladders were obtained from female Landrace pigs of 9-30 kg. Landrace pigs were euthanized with an intraperitoneal injection of pentobarbital solution, Somlethal®, J. A. Webster Inc. Sterling Mass. The entire bladder was removed and immediately placed into Krebs Ringer bicarbonate solution (composition, mM: NaCl, 120; […] Dextrose, 4.7; […] Propranolol (0.004 mM) was included in all of the assays to block β-adrenoceptors. The trigonal and dome portions were […], Strips 3-5 […] (mm) wide and 20 mm long were prepared from the remaining tissue cut in a circular fashion. The mucosal layer was removed. One end was fixed to a stationary glass rod and the other to a Grass FT03 transducer at a basal preload of 1.0 g. Two parallel platinum electrodes were included in the stationary glass trod to provide field stimulation of 0.05 Hz, 0.5 milli-seconds at 20 volts. […] Tissues were allowed to equilibrate for at least 60 minutes and primed with 80 mM KCl. A control concentration response curve (cumulative) was generated for each tissue using the potassium channel opener […] as the control agonist. […] After a 60 minute rinsing period, a concentration response curve (cumulative) was generated for the test agonist in the same fashion as that used for the control agonist […]. The maximal efficacy of each compounds (expressed as % relative to […]) is reported. The amount of agent necessary to cause 50% of the agent's maximal response (ED50) was calculated using “ALLFIT” (DeLean et al., Am. J. […] Agonist potencies were also expressed as an index relative to […]. The index was calculated by dividing the ED50 for […] by the ED50 for the test agonist in a given tissue. Each tissue was used for only one test agonist, and the indices obtained from each tissue were averaged to provide an average index of potency.

[2] = tested on: Guinea-Pig Bladder (GPB) Cells; test: Membrane Hyperpolarization (MHP) assay, DiBAC(4)3 / FLIPR; conditions: for Maximal Response (% P1075): maximal steady-state hyperpolarization, normalized to 10 μM P1075 (100%); for EC50: membrane hyperpolarization, GPB cells; for Emax: read-out: Maximal Response (% P1075), maximal steady-state hyperpolarization, normalized to 10 μM P1075 (100%)

| SMILES | EC50 [2] | EC50 [1] | EC50 ([2]; Hydrochloride) | EC50 ([2]; Cavia porcellus) | Index [1] | Efficacy (% P1075) [1] | pD2 [1] | Maximal Response (% P1075) [2] | Emax [1] | Index ([1]; Hydrochloride) | pD2 ([1]; Hydrochloride) | Maximal Response (% P1075) ([2]; Hydrochloride) | Efficacy (% P1075) ([1]; Hydrochloride) | Emax ([2]; Cavia porcellus) |
| --- | --- | --- | --- | --- | --- | --- | --- | --- | --- | --- | --- | --- | --- | --- |
| O=C1COCC2=C1C(c1ccc(F)c(Br)c1)C1=C(CCS1(=O)=O)N2 (single isomer, unassigned; (+)) [Example 12, (+)-9-(3-bromo-4-fluorophenyl)-2,3,5,9-tetrahydro-4H-pyrano[3,4-b]thieno[2,3-e]pyridin-8(7H)-one 1,1-dioxide] | 14 nM |  |  |  | 3.3 | 85 % P1075 | 7.2 | 101 % P1075 |  |  |  |  |  |  |
| N#Cc1cccc(C2C3=C(COCC3=O)NC3=C2S(=O)(=O)CC3)c1 (single isomer, unassigned; (+)) [Example 15, (+)9-(3-cyanophenyl)-2,3,5,9-tetrahydro-4H-pyrano [3,4-b]thieno[2,3-e]pyridin-8(7H)-one 1,1-dioxide] | 640 nM | 2000 nM |  |  | 0.027 |  |  | 90 % P1075 | 100% |  |  |  |  |  |
| O=C1COCC2=C1C(c1ccc(Cl)c([N+](=O)[O-])c1)C1=C(CCS1(=O)=O)N2 (single isomer, unassigned; (+)) [Example 18, (+)-9-(4-chloro-3-nitrophenyl)-2,3,5,9-tetrahydro-4H-pyrano[3,4-b]thieno[2,3-e]pyridin-8(7H)-one 1,1-dioxide] | 58 nM |  |  |  | 1.6 |  | 7.3 | 95 % P1075 | 100% |  |  |  |  |  |
| Cl.O=C1CCC2=C1C(c1ccc(F)c(Br)c1)C1=C(CNCC1=O)N2 (single isomer, unassigned; (-)) [Example 5, (−)-5-(3-bromo-4-fluorolphenyl)-2,3,5,7,8,9-hexahydro-1H-cyclopenta[b][1,7]naphthyridine-4,6-dione Hydrochloride] |  |  | 190 nM |  |  | 100 % P1075 |  |  |  | 0.16 | 6.4 | 97 % P1075 |  |  |
| Cl.O=C1CCCC2=C1C(c1ccc(F)c(Br)c1)C1=C(CNCC1=O)N2 (single isomer, unassigned; (-)) [Example 7, (−)-5-(3-bromo-4-fluorophenyl)-2,3,5,8,9,10-hexahydrobenzo[b][1,7]naphthyridine-4,6(1H, 7H)-dione Hydrochloride] |  |  | 570 nM |  |  |  |  |  | 97% | 0.040 | 5.4 | 75 % P1075 |  |  |
| O=C1COCC2=C1C(c1ccc(F)c(Br)c1)C1=C(CCS1(=O)=O)N2 (single isomer, unassigned; (-)) [Example 13, (−)-9-(3-bromo-4-fluorophenyl)-2,3,5,9-tetrahydro-4H-pyrano[3,4-b]thieno[2,3-e]pyridin-8(7H)-one 1,1-dioxide] | 240 nM |  |  |  | 0.13 | 98 % P1075 | 5.9 | 101 % P1075 |  |  |  |  |  |  |
| O=C1COCC2=C1C(c1ccc(Cl)c([N+](=O)[O-])c1)C1=C(CCS1(=O)=O)N2 (single isomer, unassigned; (-)) [Example 19, (−)-9-(4-chloro-3-nitrophenyl)-2,3,5,9-tetrahydro-4H-pyrano[3,4-b]thieno[2,3-e]pyridin-8(7H)-one 1,1-dioxide] | 1800 nM |  |  |  | 0.70 | 100 % P1075 | 6.0 | 94 % P1075 |  |  |  |  |  |  |
| O=C1COCC2=C1C(c1ccc(F)c(Br)c1)C1=C(COCC1=O)N2 [Example 1, 5-(3-bromo-4-fluorophenyl)-5,10-dihydro-1H,3H-dipyrano[3,4-b:4,3-e]pyridine-4,6(7H,9H)-dione] | 27 nM |  |  |  | 0.36 | 97 % P1075 | 6.9 | 96 % P1075 |  |  |  |  |  |  |
| Cl.O=C1CCCC2=C1C(c1ccc(F)c(Br)c1)C1=C(CNCC1=O)N2 (stereo not shown) [Example 2, 5-(3-bromo-4-fluorophenyl)-2,3,5,8,9,10-hexahydrobenzo [b][1,7]naphthyridine-4,6(1H, 7H)-dione Hydrochloride] |  |  | 650 nM |  |  |  |  |  |  | 0.041 | 5.8 | 88 % P1075 | 99 % P1075 |  |
| Cl.O=C1CNCC2=C1C(c1ccc(F)c(Br)c1)C1=C(CCCS1(=O)=O)N2 (stereo not shown) [Example 9, 10-(3-bromo-4-fluorophenyl)-3,4,6,7,8,10-hexahydro-2H-thiopyrano[3,2-b][1,7]naphthyridin-9(5H)-one 1,1-dioxide Hydrochloride] |  | 126000 nM |  | 2600 nM | 0.0015 |  |  |  | 82% |  |  |  |  | 89% |
| Cl.O=C1CNCC2=C1C(c1ccc(F)c(Br)c1)C1=C(CCS1(=O)=O)N2 (stereo not shown) [Example 10, 9-(3-Bromo-4-fluorophenyl)-2,3,5,6,7,9-hexahydrothieno [3,2-b][1,7]naphthyridin-8(4H)-one, 1,1-dioxide hydrochloride] | 1400 nM |  |  |  | 0.0028 | 96 % P1075 | 4.3 | 87 % P1075 |  |  |  |  |  |  |

Continued, in another order:

| EC50 [2] | EC50 [1] | EC50 ([2]; Hydrochloride) | EC50 ([2]; Cavia porcellus) | SMILES | Index [1] | Efficacy (% P1075) [1] | pD2 [1] | Maximal Response (% P1075) [2] | Emax [1] | Index ([1]; Hydrochloride) | pD2 ([1]; Hydrochloride) | Maximal Response (% P1075) ([2]; Hydrochloride) | Efficacy (% P1075) ([1]; Hydrochloride) | Emax ([2]; Cavia porcellus) |
| --- | --- | --- | --- | --- | --- | --- | --- | --- | --- | --- | --- | --- | --- | --- |
| 23 nM |  |  |  | O=C1COCC2=C1C(c1ccc(F)c(Br)c1)C1=C(CCS1(=O)=O)N2 (stereo not shown) [Example 11, 9-(3-bromo-4-fluorophenyl)-2,3,5,9-tetrahydro-4H-pyrano[3,4-b]thieno[2,3-e]pyridin-8(7H)-one 1,1-dioxide] | 1.2 |  | 6.8 |  | 91% |  |  |  |  | 104% |
|  | 2510 nM |  | 35 nM | O=C1CCCC2=C1C(c1ccc(F)c(Br)c1)C1=C(COCC1=O)N2 (stereo not shown) [Example 20, 5-(3-bromo-4-fluorophenyl)-5,8,9,10-tetrahydro-1H-pyrano[3,4-b]quinoline-4,6(3H, 7H)-dione] | 0.43 |  |  |  | 93% |  |  |  |  | 93% |
|  | 2510 nM |  | 46 nM | O=C1COCC2=C1C(c1ccc(F)c(Br)c1)C1=C(CSCC1=O)N2 (stereo not shown) [Example 22, 5-(3-bromo-4-fluorophenyl)-5,10-dihydro-1H,3H-pyrano[3,4-b]thiopyrano[4,3-e]pyridine-4,6(7H,9H)-dione] | 0.027 |  |  |  | 100% |  |  |  |  | 85% |
|  | 1000 nM |  | 730 nM | Cl.O=C1CNCC2=C1C(c1ccc(F)c(Br)c1)C1=C(COCC1=O)N2 (stereo not shown) [Example 24, 5-(3-bromo-4-fluorophenyl)-5,8,9,10-tetrahydro-1H-pyrano[3,4-b][1,7]naphthyridine-4,6(3H,7H)-dione Hydrochloride] | 0.055 |  |  |  | 100% |  |  |  |  | 74% |
| 64 nM |  |  |  | O=C1COCC2=C1C(c1ccc(Cl)c([N+](=O)[O-])c1)C1=C(COCC1=O)N2 [Example 28, 5-(4-chloro-3-nitrophenyl)-5,10-dihydro-1H,3H-dipyrano[3,4-b:4,3-e]pyridine-4,6(7H,9H)-dione] | 0.42 | 94 % P1075 | 6.7 | 98 % P1075 |  |  |  |  |  |  |
| 1100 nM |  |  |  | N#Cc1cccc(C2C3=C(COCC3=O)NC3=C2C(=O)COC3)c1 [Example 29, 5-(3-cyanophenyl)-5,10-dihydro-1H,3H-dipyrano[3,4-b:4,3-e]pyridine-4,6(7H,9H)-dione] | 0.075 | 89 % P1075 | 5.8 | 87 % P1075 |  |  |  |  |  |  |
| 5 nM |  |  |  | O=C1COCC2=C1C(c1ccc(F)c(I)c1)C1=C(COCC1=O)N2 [Example 30, 5-(4-fluoro-3-iodophenyl)-5,10-dihydro-1H,3H-dipyrano[3,4-b:4,3-e]pyridine-4,6(7H,9H)-dione] | 1.1 | 100 % P1075 | 7.6 | 81 % P1075 |  |  |  |  |  |  |
| 1300 nM |  |  |  | O=C1COCC2=C1C(c1cc(Br)ccc1O)C1=C(COCC1=O)N2 [Example 31, 5-(5-bromo-2-hydroxyphenyl)-5,10-dihydro-1H,3H-dipyrano[3,4-b:4,3-e]pyridine-4,6(7H,9H)-dione] | 0.065 | 85 % P1075 | 5.1 | 83 % P1075 |  |  |  |  |  |  |
| 15 nM |  |  |  | O=C1COCC2=C1C(c1ccc(F)c(C(F)(F)F)c1)C1=C(COCC1=O)N2 [Example 32, 5-[4-fluoro-3-(trifluoromethyl)phenyl]-5,10-dihydro-1H, 3H-dipyrano[3,4-b:4,3-e]pyridine-4,6(7H,9H)-dione] | 0.41 | 100 % P1075 | 6.3 | 102 % P1075 |  |  |  |  |  |  |
